Some test systems named below: 786-0; A549; HCT-15; HT-29; K562; Malme-3M; OVCAR-3; OVCAR-8; RPMI-8226; SF-295; SF-539; SK-MEL-2; XF498; HOP-92; DU-145; MCF7; MDA-MB-231; MDA-N; PC-3; RXF 393.
Common to all, as to test: DTP human tumour cell line panel, 48 h

From ChEMBL document CHEMBL1201862, “PubChem BioAssay data set” (2004) come the findings set out here.

Structures are written as SMILES.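 Grown in 96-well plates, cells were treated for 48 hours with each compound at five concentrations. Insufficient inhibition: endpoint recorded as highest concentration tested. GI50: concentration for 50% inhibition of growth.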 Calls of active or inactive are those of the source. Cut-off read from the data, not from the text of the source: active = GI50 up to about 1.1 µM and inactive = higher.

Regarding `Cc1cc(Cl)ccc1NC(=O)CCCC(=O)C1CCCC1=O` (centres undefined), the GI50 (as a rule, the concentration giving 50% growth inhibition) with 786-0 is > 100 µM (inactive); with A549, > 100 µM (inactive); with HCT-15, above 100 µM; in the experiment on HT-29 it was > 100 µM (inactive); in the experiment on K562, > 100 µM (inactive); with Malme-3M, > 100 µM (inactive). The GI50 in the experiment on OVCAR-3, in the experiment with OVCAR-8, with RPMI-8226, with SF-295, in the experiment with SF-539 and in the experiment on SK-MEL-2 was > 100 µM (inactive) each time. The GI50 in the experiment with XF498 is > 100 µM (inactive).
For the molecule `Cc1cc2c(C)nn(Cc3ccccc3)c2c(C(N)=O)c1C`, the GI50 in the experiment on 786-0 was > 100 µM (inactive); in the experiment on A549, > 100 µM (inactive); in the experiment on HCT-15, above 100 µM; in the experiment with HOP-92, > 100 µM (inactive); in the experiment on HT-29, > 100 µM (inactive); in the experiment on K562 it was > 100 µM (inactive). Besides, the GI50 in the experiment on Malme-3M, in the experiment with OVCAR-3, with OVCAR-8, in the experiment on RPMI-8226, in the experiment on SF-295 and with SF-539 was > 100 µM (inactive) in each case. The GI50 in the experiment with SK-MEL-2 and in the experiment on XF498 was > 100 µM (inactive) in each case.
As for `COc1ccc(CC2(Cc3ccc(OC)cc3)CCOC2=O)cc1`, the GI50 in the experiment on 786-0 is 44 µM (inactive); in the experiment on A549, > 100 µM (inactive); with HOP-92 it was 40.6 µM (inactive); with HT-29, > 100 µM (inactive); with K562, > 100 µM (inactive); in the experiment on Malme-3M it was > 100 µM (inactive). Further, the GI50 was > 100 µM (inactive) in the experiment with OVCAR-3; > 100 µM (inactive) in the experiment on OVCAR-8; > 100 µM (inactive) in the experiment with RPMI-8226; 60.1 µM (inactive) with SF-295; 94.8 µM (inactive) with SK-MEL-2; 0.582 µM (active) in the experiment on XF498.
With `C(=N\c1ccc(-c2nc3ccccc3[nH]2)cc1)/c1cccs1`, the GI50 with 786-0 is > 100 µM (inactive); in the experiment on A549, > 100 µM (inactive); in the experiment with DU-145 it was > 100 µM (inactive); in the experiment with HCT-15 it was 84.9 µM; in the experiment with HOP-92, 17.7 µM (inactive); in the experiment with HT-29, > 100 µM (inactive). For the same molecule, the GI50 was 81.7 µM (inactive) in the experiment on K562; 8.91 µM (inactive) with MCF7; 51.4 µM (inactive) with MDA-MB-231; > 100 µM (inactive) with MDA-N; > 100 µM (inactive) in the experiment with Malme-3M; 49.7 µM (inactive) in the experiment with OVCAR-3. Besides, the GI50 in the experiment with OVCAR-8 was 49.9 µM (inactive); with PC-3, 73.1 µM (inactive); with RPMI-8226, 52 µM (inactive); in the experiment on RXF 393 it was 56.6 µM (inactive); with SF-295, 75.7 µM (inactive); in the experiment on SF-539, > 100 µM (inactive). Moreover, in the experiment with SK-MEL-2, the GI50 is > 100 µM (inactive).
Turning to `CC(C)(C)COC1C2(OCCO2)C2CCC1(C)C2(C)C` (centres undefined), the GI50 in the experiment with 786-0 is 19.4 µM (inactive); in the experiment on A549, 23.6 µM (inactive); in the experiment with DU-145 it was 35.7 µM (inactive); with HCT-15, 22.4 µM; in the experiment with HOP-92 it was 28.1 µM (inactive); with HT-29, 32.7 µM (inactive). For the same molecule, the GI50 in the experiment with K562 is 18.5 µM (inactive); in the experiment on MCF7, 19.1 µM (inactive); in the experiment with MDA-MB-231, 31.8 µM (inactive); in the experiment on MDA-N, 43.2 µM (inactive); in the experiment on Malme-3M, 29 µM (inactive); in the experiment on OVCAR-3 it was 17.6 µM (inactive). Besides, the GI50 is 23.1 µM (inactive) with OVCAR-8; 23.1 µM (inactive) in the experiment with PC-3; 19.9 µM (inactive) with RPMI-8226; 19.6 µM (inactive) in the experiment with RXF 393; 18.7 µM (inactive) with SF-295; 37.8 µM (inactive) with SF-539. Moreover, the GI50 in the experiment with SK-MEL-2 was 23.4 µM (inactive).
`NS(=O)(=O)c1ccc(/N=N/c2cc3ccccc3c(C(=O)O)c2O)cc1`: the GI50 in the experiment on 786-0 was > 55.8 µM (inactive); in the experiment on A549, > 52.7 µM (inactive); in the experiment with DU-145, > 46 µM (inactive); in the experiment with HCT-15, above 49.7 µM; with HOP-92, 99.1 µM (inactive); in the experiment on HT-29 it was > 55.7 µM (inactive). In addition, the GI50 was > 100 µM (inactive) in the experiment with K562; 2.68 µM (inactive) in the experiment with MCF7; > 52 µM (inactive) in the experiment with MDA-MB-231; > 100 µM (inactive) in the experiment on MDA-N; > 56.9 µM (inactive) with Malme-3M; > 47.8 µM (inactive) in the experiment with OVCAR-3. The GI50 in the experiment on OVCAR-8 is > 56.8 µM (inactive); in the experiment on PC-3, > 48.3 µM (inactive); with RPMI-8226, > 100 µM (inactive); in the experiment with RXF 393, > 46.2 µM (inactive); in the experiment on SF-295 it was > 100 µM (inactive); in the experiment on SF-539 it was > 100 µM (inactive). The GI50 with SK-MEL-2 is > 45.1 µM (inactive).
As for `CCOc1cc(C2SCC(=O)N2c2nc3cc4sc(N5C(=O)CSC5c5ccc(O)c(OCC)c5)nc4cc3s2)ccc1O` (centres undefined), the GI50 in the experiment with 786-0 was 31.6 µM (inactive); in the experiment on A549, 6.98 µM (inactive); with DU-145 it was 17.8 µM (inactive); with HCT-15, 8.47 µM; in the experiment on HOP-92, 27.7 µM (inactive); in the experiment on HT-29, 18.4 µM (inactive). The GI50 in the experiment on K562 is > 64.6 µM (inactive); with MCF7, 9.86 µM (inactive); in the experiment on MDA-MB-231, > 48.5 µM (inactive); in the experiment with MDA-N, 30.5 µM (inactive); in the experiment on Malme-3M, > 68.9 µM (inactive); with OVCAR-3, > 100 µM (inactive). Further, the GI50 with OVCAR-8 was > 68.7 µM (inactive); in the experiment with PC-3 it was 58.5 µM (inactive); in the experiment on RPMI-8226, 32.5 µM (inactive); with RXF 393 it was > 100 µM (inactive); with SF-295, > 100 µM (inactive); with SF-539, 15.7 µM (inactive). The GI50 in the experiment with SK-MEL-2 is > 100 µM (inactive).
With `CCOP(=O)(OCC)C(C)(CC)N/C(=N\C1=NC(C(F)(F)F)(C(F)(F)F)N=C(C(F)(F)F)O1)NC(NC(C)=O)(C(F)(F)F)C(F)(F)F` (centres undefined), the GI50 in the experiment on 786-0 was 37.3 µM (inactive); in the experiment on A549, 53.5 µM (inactive); with DU-145, 81.5 µM (inactive); in the experiment on HCT-15 it was 58.5 µM; with HOP-92 it was 9.95 µM (inactive); in the experiment on HT-29 it was 20.7 µM (inactive). In addition, the GI50 in the experiment with K562 was 16.9 µM (inactive); in the experiment on MCF7, 21.9 µM (inactive); in the experiment with MDA-MB-231, 22.9 µM (inactive); in the experiment with MDA-N, 52.5 µM (inactive); in the experiment with Malme-3M, 22.1 µM (inactive); with OVCAR-3 it was 40.3 µM (inactive). The GI50 in the experiment with OVCAR-8 was 36.6 µM (inactive); in the experiment on PC-3, 21.2 µM (inactive); in the experiment with RPMI-8226 it was 24.2 µM (inactive); in the experiment on RXF 393, 32.6 µM (inactive); in the experiment on SF-295, 18 µM (inactive); in the experiment with SF-539, 40.2 µM (inactive). Moreover, in the experiment on SK-MEL-2, the GI50 was 25.5 µM (inactive).
As to `COC(CN(C(=O)c1ccccc1)C1CCC2(SCCS2)c2[nH]c3ccccc3c21)OC` (centres undefined), the GI50 in the experiment with 786-0 was 37 µM (inactive); with A549 it was 30.7 µM (inactive); in the experiment with DU-145 it was 93.3 µM (inactive); in the experiment with HCT-15, 30.6 µM; with HOP-92, 7.24 µM (inactive); in the experiment on HT-29, 37.3 µM (inactive). Further, the GI50 was 14.9 µM (inactive) with K562; 32.1 µM (inactive) in the experiment with MCF7; 28.9 µM (inactive) with MDA-MB-231; 12.9 µM (inactive) in the experiment on MDA-N; 25.2 µM (inactive) with Malme-3M; 25.8 µM (inactive) with OVCAR-3. Also, the GI50 in the experiment on OVCAR-8 was 34.9 µM (inactive); in the experiment with PC-3, 18.2 µM (inactive); in the experiment with RPMI-8226, 29.6 µM (inactive); with RXF 393 it was 20.3 µM (inactive); in the experiment with SF-295, 3.01 µM (inactive); in the experiment on SF-539, 63.1 µM (inactive). The GI50 in the experiment on SK-MEL-2 was 32.6 µM (inactive).
Take `Cn1c(=O)oc2cc(C3CCC(=O)N3Cc3ccc(Cl)cc3)ccc21` (centres undefined): the GI50 is > 100 µM (inactive) with 786-0; > 100 µM (inactive) with A549; above 100 µM in the experiment on HCT-15; > 100 µM (inactive) in the experiment on HT-29; > 100 µM (inactive) in the experiment on K562; > 100 µM (inactive) with Malme-3M. Also, the GI50 with OVCAR-8 was > 100 µM (inactive); in the experiment on RPMI-8226, > 100 µM (inactive); in the experiment with RXF 393, 29.6 µM (inactive); in the experiment with SF-295 it was > 100 µM (inactive); in the experiment with SF-539 it was > 100 µM (inactive); in the experiment on SK-MEL-2, > 100 µM (inactive). The GI50 with XF498 is > 100 µM (inactive).
In the case of `O=C1NC(=O)C(c2c[nH]c3cc(Br)ccc23)=C1c1cn(C(c2ccccc2)(c2ccccc2)c2ccccc2)cn1`, the GI50 in the experiment with 786-0 is 8.85 µM (inactive); with A549, 7.24 µM (inactive); in the experiment with DU-145, 21.6 µM (inactive); with HCT-15, 12.8 µM; with HOP-92, 13.9 µM (inactive); in the experiment on HT-29, 9.48 µM (inactive). The GI50 with K562 was 6.3 µM (inactive); in the experiment on MCF7, 10.8 µM (inactive); in the experiment with MDA-MB-231 it was 5.97 µM (inactive); in the experiment on MDA-N, 10.1 µM (inactive); in the experiment on Malme-3M, 19.5 µM (inactive); in the experiment with OVCAR-3, 29.7 µM (inactive). Also, the GI50 in the experiment with OVCAR-8 was 14.6 µM (inactive); in the experiment with PC-3, 6.19 µM (inactive); in the experiment with RPMI-8226 it was 10.1 µM (inactive); with RXF 393, 15 µM (inactive); in the experiment with SF-295 it was 18.1 µM (inactive); with SF-539, 14.8 µM (inactive). Also, the GI50 in the experiment on SK-MEL-2 is 11.2 µM (inactive).
With `CC1(CCC2C=CCC2)CCCNC1=S` (centres undefined), the GI50 was > 10 µM (inactive) in the experiment with 786-0; > 10 µM (inactive) in the experiment on A549; > 10 µM (inactive) in the experiment with DU-145; above 10 µM with HCT-15; > 10 µM (inactive) in the experiment on HOP-92; > 10 µM (inactive) in the experiment with HT-29. For the same molecule, the GI50 with K562, with MCF7, in the experiment with MDA-MB-231, in the experiment on MDA-N, in the experiment with Malme-3M and in the experiment with OVCAR-3 was > 10 µM (inactive) each time. For the same molecule, the GI50 with OVCAR-8, with PC-3, in the experiment on RPMI-8226, in the experiment on RXF 393, in the experiment on SF-295 and in the experiment on SF-539 was > 10 µM (inactive) throughout. Also, the GI50 with SK-MEL-2 was > 10 µM (inactive).
